Measurements reported in patent US20180243298A1, “TRPV3 MODULATORS” (AbbVie Inc., priority 2015, published 2018).
Where two headings read alike, the source gives them in different places.

What was measured:
TRPV3 = TRPV3 activation, relatively weak and nonspecific across TRPs; cited from earlier work
human TRPV3 = biological target: T1, human TRPV3 (Homo sapiens, UniProt Q8NET8); assay: Calcium flux assay (FLIPR TETRA), recombinant HEK293 cells expressing TRPV3, 2-APB response; format: cell-based; conditions: 2-APB at its EC80
T1 construct: expressed in transfected cells; host or cells: HEK293
T1 sequence (Q8NET8 1-790): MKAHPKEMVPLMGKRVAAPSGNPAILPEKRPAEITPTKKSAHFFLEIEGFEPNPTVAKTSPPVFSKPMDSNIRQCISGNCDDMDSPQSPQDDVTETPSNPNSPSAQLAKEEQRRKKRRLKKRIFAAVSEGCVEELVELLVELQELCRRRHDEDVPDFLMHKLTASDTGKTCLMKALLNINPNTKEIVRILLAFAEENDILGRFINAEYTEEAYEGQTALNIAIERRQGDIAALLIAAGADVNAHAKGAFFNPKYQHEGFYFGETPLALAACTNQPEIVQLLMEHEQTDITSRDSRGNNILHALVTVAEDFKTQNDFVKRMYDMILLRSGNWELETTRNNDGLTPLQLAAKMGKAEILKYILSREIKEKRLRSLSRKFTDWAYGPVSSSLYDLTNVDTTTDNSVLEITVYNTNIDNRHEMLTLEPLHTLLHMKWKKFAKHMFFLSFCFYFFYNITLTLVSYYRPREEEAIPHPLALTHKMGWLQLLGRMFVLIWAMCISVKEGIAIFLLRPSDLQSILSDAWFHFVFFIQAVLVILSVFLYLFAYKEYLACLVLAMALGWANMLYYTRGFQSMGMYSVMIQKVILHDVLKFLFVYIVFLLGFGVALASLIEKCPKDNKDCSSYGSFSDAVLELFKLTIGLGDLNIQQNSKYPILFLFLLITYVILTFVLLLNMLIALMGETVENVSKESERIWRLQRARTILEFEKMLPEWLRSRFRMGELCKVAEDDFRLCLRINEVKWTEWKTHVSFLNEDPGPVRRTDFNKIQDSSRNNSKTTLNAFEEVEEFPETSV
How it was run: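 Response is the peak fluorescence increase over baseline, as a percentage of the compound-free response to 2-APB at EC80. Calcium flux recorded on FLIPR TETRA in stable human or mouse TRPV3 HEK293 cells after 90–120 min Calcium-4 dye loading.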

FITC-challenged mice = assay: Contact hypersensitivity (CHS) to FITC, ear swelling in mice; format: in vivo, mice (BALB/c); conditions: Mus musculus, reduction in ear skin thickness vs vehicle, 24 hours after FITC challenge, read-out: FITC % effect
Method: (ii) In vivo Data The following protocol was used to evaluate the efficacy of a compound against contact hypersensitivity:
Young adult female BALB/c mice (18±2 g body weight at 6-8 weeks old) Charles River Laboratories) were maintained under pathogen-free conditions and housed in an animal room maintained t at temperature of 21±1° C. and a humidity of 43±5%. Induction of contact hypersensitivity (CHS) and ear thickness measurements for all animals were carried out under light anesthesia (3-5% isoflurane/oxygen) for 1-2 minutes.
Contact hypersensitivity consists of the afferent or initiation sensitizing phase, and the efferent or elicitation phase. The latter phase occurs when epidermal cells encounter a particular antigen to which the epidermal cells have previously been exposed, and is characterized in rodents by localized swelling in the skin.
Fluorescein isothiocyanate (FITC) was purchased from Sigma-Aldrich and dissolved in 1:1 in acetone/dibutylphthalate prior to epicutaneous application. Mice were sensitized by painting epicutaneously 40 uL of 0.5% FITC on the abdomen ventral skin shaved one day prior to sensitization. Six days later, mice were challenged by painting epicutaneously 20 uL total volume of 0.5% FITC on the right ear (10 uL on either side). Control mice were treated with vehicle only. Ear swelling was measured 24 hours after challenge. Treatment groups were dosed orally at a dose volume of 10 mL/kg with compounds either BID (1 hour prior to FITC challenge, 8 hours after first dose and 2 hours prior to ear swelling measurement at 24 hours post FITC challenge) or QD (1 hour prior to FITC challenge and 2 hours prior to ear swelling measurement at 24 hours post FITC challenge). Inflammation was determined by the degree of ear swelling of the hapten exposed ear compared with the untreated ear with a Quick Mini thickness-gauge caliber (Mitutoyo, Japan). The change in ear thickness after allergen treatment can be used to calculate the percent suppression of contact hypersensitivity.
The level of compound-mediated suppression of ear skin thickness in FITC-challenged mice is indicated in Table 2 wherein “A” refers to a reduction in ear skin thickness of >50%, “B” refers to a reduction in ear skin thickness of 30-50% and “C” refers to a reduction in ear skin thickness of <30% relative to vehicle-treated animals.

Structure (SMILES) | EC50 (TRPV3) [µM] | IC50 (human TRPV3) [µM] | inhibition in vivo at 30 mg/kg (FITC-challenged mice; 30 mg/kg qd po) [%] | inhibition in vivo at 30 mg/kg (FITC-challenged mice; 30 mg/kg bid po) [%]
c1ccc(B(OB(c2ccccc2)c2ccccc2)c2ccccc2)cc1 [DPBA, diphenylboronic anhydride] | ~40 |  |  | 
COc1ncnc(OC)c1C(=O)Nc1nc(C(F)(F)F)c(-c2cccnc2C)s1 [Example 64, 4,6-dimethoxy-N-[5-(2-methylpyridin-3-yl)-4-(trifluoromethyl)-1,3-thiazol-2-yl]pyrimidine-5-carboxamide] |  | < 0.05 | 30 to 50 | 
NCCOB(c1ccccc1)c1ccccc1 [Example 2-APB, 2-aminoethoxydiphenylborate] | ~40 |  |  | 
COc1ncnc(OC)c1C(=O)Nc1nc(C(F)(F)F)c(-c2cnoc2)s1 [Example 169, 4,6-dimethoxy-N-[5-(1,2-oxazol-4-yl)-4-(trifluoromethyl)-1,3-thiazol-2-yl]pyrimidine-5-carboxamide] |  | < 0.05 |  | < 30
COc1ncnc(OC)c1C(=O)Nc1nc(C(F)(F)F)c(-c2ccc3nonc3c2)s1 [Example 199, N-[5-(2,1,3-benzoxadiazol-5-yl)-4-(trifluoromethyl)-1,3-thiazol-2-yl]-4,6-dimethoxypyrimidine-5-carboxamide] |  | < 0.05 |  | 30 to 50
COc1ncnc(OC)c1C(=O)Nc1nc(C(F)(F)F)c(-c2cccc(C#N)c2)s1 [Example 40, N-[5-(3-cyanophenyl)-4-(trifluoromethyl)-1,3-thiazol-2-yl]-4,6-dimethoxypyrimidine-5-carboxamide] |  | < 0.05 |  | < 30
